How the values were obtained:
[1] = system: Female C57BL/6 mice immunosuppressed with cyclophosphamide; test: Chemoprotection studies: in vivo induction of immune cell proliferation or protection in cyclophosphamide-immunosuppressed mice; conditions: oral pre-treatment day -3, -2, -1, CY 200 mg/kg i.v. day 0, sacrifice day +5; for peripheral white blood cell count: FIG. 2; for spleen red cell count: FIG. 3
Procedure: Chemoprotection Studies: In vivo Induction of Immune Cell Proliferation or Protection By Medium-Chain Fatty Alcohol.
Female C57BL/6 mice, 6 to 8 weeks old, were immunosuppressed by treatment with 200 mg/kg of cyclophosphamide (CY) administered intravenously at day 0. To examine the immunoprotective effect of the medium-chain fatty alcohol, mice were pre-treated at day −3, −2 and −1 by oral administration of the compound. Mice were sacrificed at day +5 by cardiac puncture and cervical dislocation. After the sacrifice, tissues were crushed in PBS buffer and cells were counted on a hemacytometer.

rats = conditions: oral; cited from earlier work

| SMILES | peripheral white blood cell count [1] | spleen red cell count [1] | LD50 (rats) [g/kg body weight] | bone marrow white cell count ([1]; FIG. 1) |
| --- | --- | --- | --- | --- |
| CCCCCCCCO [octanol] | nonsignificant increase | significant increase | 3.2 | – |
| CCCCCCCCCCO [decanol] | nonsignificant increase | significant increase | 4.7 | significant increase |
| CCCCCCCCCCCCO [dodecanol] | nonsignificant increase | significant increase | – | – |
